Legend:
Assay type in all cases: cell-based
[1] = tested on: HCT116 (colorectal carcinoma) cells; assay: in vitro inhibition of HCT116 cells
Description: (§1) Various exemplary 5-fluoro-4-pyrmidineamine compounds (illustrated in TABLE 1, infra) were synthesized as described herein and tested for their ability to inhibit A549 (lung carcinoma), DLD-1 (colorectal adenocarcinoma), H1299 (non small cell lung carcinoma), HCT116 (colorectal carcinoma), HELA (cervical adenocarcinoma) and/or U2OS (bone osterosarcoma) cells in vitro. […] A blank indicates the particular compound was […].

[2] = tested on: MDA-MB-231 (estrogen independent breast adenocarcinoma); assay: additional cell line MDA-MB-231; conditions: MDA-MB-231 cell line
Description: (§2) Compound 1 was tested against the following additional cell lines: ACHN (renal cell adenocarcimona), JAR (placental choriocarcinoma), MCF7 (estrogen-dependent breast adenocarcinoma), MDA-MB-231 (estrogen independent breast adenocarcinoma), SKMEL28 (human melanoma) and SKMEL5 (human melanoma). In all cases, the IC50 was less than 1 μM.

[3] = tested on: HELA (cervical adenocarcinoma) cells; assay: in vitro inhibition of HELA cells
Description: as §1

SKMEL28 (human melanoma) = assay: additional cell line SKMEL28
Description: as §2

[4] = tested on: MCF7 (estrogen-dependent breast adenocarcinoma); assay: additional cell line MCF7
Description: as §2

[5] = tested on: ACHN (renal cell adenocarcimona); assay: additional cell line ACHN
Description: as §2

[6] = tested on: U2OS (bone osterosarcoma) cells; assay: in vitro inhibition of U2OS cells
Description: as §1

[7] = tested on: JAR (placental choriocarcinoma); assay: additional cell line JAR
Description: as §2

SKMEL5 (human melanoma) = assay: additional cell line SKMEL5
Description: as §2

[8] = tested on: H1299 (non small cell lung carcinoma) cells; assay: in vitro inhibition of H1299 cells
Description: as §1

[9] = tested on: A549 (lung carcinoma) cells; assay: in vitro inhibition of A549 cells
Description: as §1

[10] = tested on: DLD-1 (colorectal adenocarcinoma) cells; assay: in vitro inhibition of DLD-1 cells; conditions: DLD-1 (colorectal adenocarcinoma) cells in vitro
Description: as §1

HCT116 = assay: 9-point anti-proliferation assay, HCT116; conditions: HCT116, 9-point anti-proliferation assay
[11] = tested on: Colo205 (colorectal adenocarcinoma); assay: 9-point anti-proliferation assay, Colo205; conditions: Colo205, 9-point anti-proliferation assay
[12] = tested on: Miapaca2 (pancreatic carcinoma); assay: 9-point anti-proliferation assay, Miapaca2; conditions: Miapaca2, 9-point anti-proliferation assay
A549 = assay: 9-point anti-proliferation assay, A549; conditions: A549, 9-point anti-proliferation assay

Compound | IC50 [8] [µM] | IC50 [9] [µM] | also measured
CN(c1ccc2c(c1)OCCO2)c1nc(Cl)ncc1F [Compound 1, 2-chloro-N-4-(3,4-ethylenedioxyphenyl)-5-fluoro-N-4-methyl-4-pyrimidineamine] | ≤ 1 | ≤ 1 | IC50 [1]: ≤ 1 µM; IC50 [2]: < 1 µM; IC50 [3]: ≤ 1 µM; IC50 (SKMEL28 (human melanoma)): < 1 µM; IC50 [4]: < 1 µM; IC50 [5]: < 1 µM; IC50 [6]: ≤ 1 µM; IC50 [7]: < 1 µM; IC50 (SKMEL5 (human melanoma)): < 1 µM
COc1ccc(N(C)c2nc(Cl)ncc2F)cc1OC [Compound 2] | ≤ 1 | ≤ 1 | 
COc1c(Cl)cc(N(C)c2nc(Cl)ncc2F)cc1Cl [Compound 5] | ≤ 10 | 1 to 10 | 
COc1cc(N(C)c2nc(Cl)ncc2F)ccc1Cl [Compound 6] | > 20 | > 20 | 
COc1ccc(N(C)c2nc(Cl)ncc2F)cc1Cl [Compound 7] | ≤ 1 | ≤ 1 | 
CCCN(c1ccc(OC)c(Cl)c1)c1nc(Cl)ncc1F [Compound 9] | ≤ 10 | 1 to 10 | 
COc1cc(N(C)c2nc(Cl)ncc2F)cc(OC)c1OC [Compound 10] | > 20 | > 20 | 
Cc1cc(N(C)c2nc(Cl)ncc2F)cc(C)c1Cl [Compound 11] | > 20 | > 20 | 
COc1cc(OC)cc(N(C)c2nc(Cl)ncc2F)c1 [Compound 12] | > 20 | > 20 | 
COc1ncc(F)c(N(C)c2ccc3c(c2)OCCO3)n1 [Compound 15] | 1 to 10 | ≤ 10 | 
CN(c1ccc2c(c1)OCCO2)c1nc(-c2ccccc2)ncc1F [Compound 18, N4-(3,4-Ethylenedioxyphenyl)-5-fluoro-N-4-methyl-2-(phenyl)-4-pyrimidineamine] | ≤ 1 | ≤ 1 | 
COc1ccc(-c2ncc(F)c(N(C)c3ccc4c(c3)OCCO4)n2)cc1OC [Compound 20, N4-(3,4-Ethylenedioxyphenyl)-2-(3,4-dimethoxyphenyl)-5-fluoro-N-4-methyl-4-pyrimidineamine] | > 20 | > 20 | IC50 [1]: > 20 µM; IC50 [3]: > 20 µM; IC50 [6]: > 20 µM; IC50 [10]: > 20 µM
CN(c1ccc2c(c1)OCCO2)c1nc(-c2ccc3c(c2)OCO3)ncc1F [Compound 21, N4-(3,4-Ethylenedioxyphenyl)-5-fluoro-N-4-methyl-2-(3,4-methylenedioxyphenyl)-4-pyrimidineamine] | 1 to 10 | ≤ 10 | IC50 [1]: ≤ 20 µM; IC50 [3]: ≤ 20 µM; IC50 [6]: ≤ 20 µM; IC50 [10]: ≤ 20 µM
CN(c1ccc2c(c1)OCCO2)c1nc(-c2ccco2)ncc1F [Compound 22, N4-(3,4-Ethylenedioxyphenyl)-5-fluoro-2-(2-furyl)-N-4-methyl-4-pyrimidineamine] | ≤ 1 | ≤ 1 | IC50 [1]: ≤ 10 µM; IC50 [3]: ≤ 10 µM; IC50 [6]: ≤ 10 µM; IC50 [10]: ≤ 10 µM
CN(c1ccc2c(c1)OCCO2)c1nc(-c2cccc(N)c2)ncc1F [Compound 23, 2-(3-Aminophenyl)-N-4-(3,4-ethylenedioxyphenyl)-5-fluoro-N-4-methyl-4-pyrimidineamine] | ≤ 1 | ≤ 1 | IC50 [1]: ≤ 10 µM; IC50 [3]: ≤ 10 µM; IC50 [6]: ≤ 10 µM; IC50 [10]: ≤ 10 µM
CN(c1ccc2c(c1)OCCO2)c1nc(-c2ccsc2)ncc1F [Compound 25, N4-(3,4-Ethylenedioxyphenyl)-5-fluoro-N-4-methyl-2-(3-thienyl)-4-pyrimidineamine] | ≤ 1 | ≤ 1 | IC50 [1]: ≤ 1 µM; IC50 (HCT116): < 1 µM; IC50 [3]: ≤ 1 µM; IC50 [11]: < 1 µM; IC50 [6]: ≤ 1 µM; IC50 [10]: ≤ 1 µM; IC50 [12]: < 1 µM; IC50 (A549): < 1 µM

Compound | IC50 [8] [µM] | IC50 [9] [µM] | also measured
CN(c1ccc2c(c1)OCCO2)c1nc(-c2ccoc2)ncc1F [Compound 26, N4-(3,4-Ethylenedioxyphenyl)-5-fluoro-2-(3-furyl)-N-4-methyl-4-pyrimidineamine] | ≤ 1 | ≤ 1 | IC50 [1]: ≤ 1 µM; IC50 [3]: ≤ 1 µM; IC50 [6]: ≤ 1 µM; IC50 [10]: ≤ 1 µM
CN(c1ccc2c(c1)OCCO2)c1nc(-c2cccnc2)ncc1F [Compound 27, N4-(3,4-Ethylenedioxyphenyl)-5-fluoro-N-4-methyl-2-(pyridin-3-yl)-4-pyrimidineamine] | 1 to 10 | ≤ 10 | 
CN(c1ccc2c(c1)OCCO2)c1nc(-c2ccncc2)ncc1F [Compound 28, N4-(3,4-Ethylenedioxyphenyl)-5-fluoro-N-4-methyl-2-(pyridin-4-yl)-4-pyrimidineamine] | ≤ 1 | ≤ 1 | 
Cc1noc(C)c1-c1ncc(F)c(N(C)c2ccc3c(c2)OCCO3)n1 [Compound 29, 2-(3,5-Dimethylisoxazol-4-yl)-N-4-(3,4-ethylenedioxyphenyl)-5-fluoro-N-4-methyl-4-pyrimidineamine] | 1 to 10 | ≤ 10 | 
CN(c1ccc2c(c1)OCCO2)c1nc(-c2nccs2)ncc1F [Compound 30, N4-(3,4-Ethylenedioxyphenyl)-5-fluoro-N-4-methyl-2-(thiazol-2-yl)-4-pyrimidineamine] | 1 to 10 | ≤ 10 | 
CN(c1ccc2c(c1)OCCO2)c1nc(-c2ccc[nH]2)ncc1F [Compound 31, N4-(3,4-Ethylenedioxyphenyl)-5-fluoro-N-4-methyl-2-(1H-pyrrol-2-yl)-4-pyrimidineamine] | ≤ 1 | ≤ 1 | IC50 [1]: ≤ 1 µM; IC50 [3]: ≤ 1 µM; IC50 [6]: ≤ 1 µM; IC50 [10]: ≤ 1 µM
Cc1ccc(-c2ncc(F)c(N(C)c3ccc4c(c3)OCCO4)n2)s1 [Compound 33, N4-(3,4-Ethylenedioxyphenyl)-5-fluoro-N-4-methyl-2-(5-methyl-2-thienyl)-4-pyrimidineamine] | 1 to 10 | ≤ 10 | 
Cc1cscc1-c1ncc(F)c(N(C)c2ccc3c(c2)OCCO3)n1 [Compound 34, N4-(3,4-Ethylenedioxyphenyl)-5-fluoro-N-4-methyl-2-(4-methyl-3-thienyl)-4-pyrimidineamine] | ≤ 1 | ≤ 1 | 
CN(c1ccc2c(c1)OCCO2)c1nc(-c2cc3ccccc3s2)ncc1F [Compound 35, 2-(Benzothiophen-2-yl)-N-4-(3,4-ethylenedioxyphenyl)-5-fluoro-N-4-methyl-4-pyrimidineamine] | > 20 | > 20 | 
CN(c1ccc2c(c1)OCCO2)c1nc(-c2csc3ccccc23)ncc1F [Compound 36, 2-(Benzothiophen-3-yl)-N-4-(3,4-ethylenedioxyphenyl)-5-fluoro-N-4-methyl-4-pyrimidineamine] | > 20 | > 20 | 
CN(c1ccc2c(c1)OCCO2)c1nc(-c2ccc(Cl)s2)ncc1F [Compound 37, 2-(5-Chloro-2-thienyl)-N-4-(3,4-ethylenedioxyphenyl)-5-fluoro-N-4-methyl-4-pyrimidineamine] | 10 to 20 | > 20 | 
CN(c1ccc2c(c1)OCCO2)c1nc(-c2ccsc2C=O)ncc1F [Compound 39, N4-(3,4-ethylenedioxyphenyl)-5-fluoro-2-(2-formylthien-3-yl)-N-4-methyl-4-pyrimidineamine] | ≤ 1 | ≤ 1 | 
CNCc1sccc1-c1ncc(F)c(N(C)c2ccc3c(c2)OCCO3)n1 [Compound 40, N4-(3,4-ethylenedioxyphenyl)-5-fluoro-N-4-methyl-2-(2-methylaminomethylenethien-3-yl)-4-pyrimidineamine] | 1 to 10 | ≤ 10 | 
CN(c1ccc2c(c1)OCCO2)c1nc(-c2cc[s+]([O-])c2)ncc1F (stereo not shown) [Compound 41, N4-(3,4-ethylenedioxyphenyl)-5-fluoro-N-4-methyl-2-(1-oxide-3-thienyl)-4-pyrimidineamine] | 1 to 10 | ≤ 10 | 
N4-(3,4-Ethylenedioxyphenyl)-5-fluoro-2-(3-hydroxyphenyl)-N-4-methyl-4-pyrimidineamine [Compound 19] | 1 to 10 | ≤ 10 | 
